According to ChEMBL document CHEMBL3272216 (J Med Chem, 1977):
Where a SMILES comes first, the peptide text is derived from it. Bridges are numbered along the chain shown (N, C = ends). [ ]: non-standard residue; d: D form. pGlu = O=C1CC[C@@H](C(=O)O)N1

Key:
[1] = species on record: Rattus norvegicus; assay: Binding affinity to neurotensin receptor in rat mast cells at 1 ng to 10 ug after 15 mins relative to neurotensin; assay type: cell-based
[2] = Retention time of the compound in 0.01 M NH4OAc buffer at pH 4.5 by HPLC analysis; assay type: physicochemical
[3] = test system: Rattus norvegicus; assay: Induction of hypothermia in cold-exposed Sprague-Dawley rat compound administered intracisternally measured 60 mins post dose relative to neurotensin; assay type: functional

SMILES | Retention_time [2] [min] | Ratio [1] | Ratio [3]
CC[C@H](C)[C@H](NC(=O)[C@H](Cc1ccc(O)cc1)NC(=O)[C@@H]1CCCN1C(=O)[C@@H](N)CCCN=C(N)N)C(=O)N[C@@H](CC(C)C)C(=O)O | – | 76 | 20
CC[C@@H](C)[C@H](NC(=O)[C@H](Cc1ccc(O)cc1)NC(=O)[C@@H]1CCCN1C(=O)[C@H](CCCNC(=N)N)NC(=O)[C@@H](N)CCCNC(=N)N)C(=O)N[C@@H](CC(C)C)C(=O)O | – | 67 | –
CC[C@H](C)[C@@H]1NC(=O)[C@H](Cc2ccc(O)cc2)NC(=O)[C@@H]2CCCN2C(=O)[C@H](CCCNC(=N)N)NC(=O)[C@H](CCCNC(=N)N)NC(=O)[C@@H]2CCCN2C(=O)[C@H](CCCCN)NC(=O)[C@H](CC(N)=O)NC(=O)[C@H](CCC(=O)O)NC(=O)[C@H](Cc2ccc(O)cc2)NC(=O)[C@@H](NC(=O)[C@@H]2CCC(=O)N2)CSSC[C@@H](C(=O)O)NC1=O ([pGlu]CYENKPRRPYIC-OH; disulfide 2-13) | 5.3 | 3.4 | 100
CC[C@H](C)[C@H](NC(=O)[C@H](Cc1ccc(O)cc1)NC(=O)[C@@H]1CCCN1C(=O)[C@H](CCCNC(=N)N)NC(=O)[C@@H](N)CCCNC(=N)N)C(=O)N[C@@H](CC(C)C)C(=O)O [listing 2 of 2 here] | – | – | 25
CC[C@H](C)[C@H](NC(=O)[C@H](Cc1ccc(O)cc1)NC(=O)[C@@H]1CCCN1C(=O)[C@@H](N)CCCNC(=N)N)C(=O)N[C@@H](CC(C)C)C(=O)O | 10.4 | – | –

Second part, led by results:

Retention_time [2] [min] | SMILES | Ratio [1] | Ratio [3]
4.9 | CC[C@H](C)[C@H](NC(=O)[C@H](Cc1ccc(O)cc1)NC(=O)[C@@H]1CCCN1C(=O)[C@H](CCCNC(=N)N)NC(=O)[C@H](CCCNC(=N)N)NC(=O)[C@@H]1CCCN1C(=O)[C@H](CCCCN)NC(=O)[C@H](CC(N)=O)NC(=O)[C@H](CCC(=O)O)NC(=O)[C@H](Cc1ccccc1)NC(=O)[C@H](CC(C)C)NC(=O)[C@@H]1CCC(=O)N1)C(=O)N[C@@H](CC(C)C)C(=O)O | 102 | 100
8.2 | CC[C@H](C)[C@H](NC(=O)[C@H](Cc1ccc(O)cc1)NC(=O)[C@@H]1CCCN1C(=O)[C@H](CCCNC(=N)N)NC(=O)[C@@H](N)CCCNC(=N)N)C(=O)N[C@@H](CC(C)C)C(=O)O [listing 1 of 2 here] | – | –
5.2 | CC[C@H](C)[C@H](NC(=O)[C@@H](CC(C)C)NC(=O)[C@@H]1CCCN1C(=O)[C@H](CCCNC(=N)N)NC(=O)[C@H](CCCNC(=N)N)NC(=O)[C@@H]1CCCN1C(=O)[C@H](CCCCN)NC(=O)[C@H](CC(N)=O)NC(=O)[C@H](CCC(=O)O)NC(=O)[C@H](Cc1ccc(O)cc1)NC(=O)[C@H](CC(C)C)NC(=O)[C@@H]1CCC(=O)N1)C(=O)N[C@@H](CC(C)C)C(=O)O | – | 30
5.3 | CC[C@H](C)[C@H](NC(=O)[C@@H](Cc1ccccc1)NC(=O)[C@@H]1CCCN1C(=O)[C@H](CCCN=C(N)N)NC(=O)[C@H](CCCN=C(N)N)NC(=O)[C@@H]1CCCN1C(=O)[C@H](CCCCN)NC(=O)[C@H](CC(N)=O)NC(=O)[C@H](CCC(=O)O)NC(=O)[C@H](Cc1ccc(O)cc1)NC(=O)[C@H](CC(C)C)NC(=O)[C@@H]1CCC(=O)N1)C(=O)N[C@@H](CC(C)C)C(=O)O | 0.64 | 1000
6.4 | CC[C@H](C)[C@H](NC(=O)[C@@H](CCCCN)NC(=O)[C@@H]1CCCN1C(=O)[C@H](CCCNC(=N)N)NC(=O)[C@H](CCCNC(=N)N)NC(=O)[C@@H]1CCCN1C(=O)[C@H](CCCCN)NC(=O)[C@H](CC(N)=O)NC(=O)[C@H](CCC(=O)O)NC(=O)[C@H](Cc1ccc(O)cc1)NC(=O)[C@H](CC(C)C)NC(=O)[C@@H]1CCC(=O)N1)C(=O)N[C@@H](CC(C)C)C(=O)O | 3.4 | <1
9.7 | CC[C@H](C)[C@H](NC(=O)[C@H](Cc1ccccc1)NC(=O)[C@@H]1CCCN1C(=O)[C@H](CCCN=C(N)N)NC(=O)[C@H](CCCN=C(N)N)NC(=O)[C@@H]1CCCN1C(=O)[C@H](CCCCN)NC(=O)[C@H](CC(N)=O)NC(=O)[C@H](CCC(=O)O)NC(=O)[C@H](Cc1ccc(O)cc1)NC(=O)[C@H](CC(C)C)NC(=O)[C@@H]1CCC(=O)N1)C(=O)N[C@@H](CC(C)C)C(=O)O | 100 | 100
